Results taken from ChEMBL document CHEMBL5058645, “Data for DCP probe JNJ-6204” (2022).
Active and inactive are the calls of the source. The calls are words filed in the database; no cut-off is given here.

Legend:
[1] = target: Macrophage colony-stimulating factor 1 receptor (Homo sapiens, UniProt P07333); assay: Fms(h) Kinase panel
[2] = target: Serine/threonine-protein kinase DCLK2 (Homo sapiens, UniProt Q8N568); assay: DCAMKL2(h) Kinase panel
[3] = target: T1, Casein kinase I isoform epsilon (Homo sapiens, UniProt P49674); assay: CK1epsilon(h) Kinase panel
[4] = target: TRAF2 and NCK-interacting protein kinase (Homo sapiens, UniProt Q9UKE5); assay: TNIK(h) Kinase panel
[5] = target: Serine/threonine-protein kinase 38-like (Homo sapiens, UniProt Q9Y2H1); assay: NDR2(h) Kinase panel
[6] = GPCRScan assay: inhibition of GABA/PBR; parameters: species or system Rattus norvegicus; radioligand conc. used [nm] 0.3 – 2.0, parental cells brain tissue
[7] = target: 5'-AMP-activated protein kinase catalytic subunit alpha-2 (Homo sapiens, UniProt P54646); assay: AMPKalpha2(h) Kinase panel
[8] = target: Mitogen-activated protein kinase 14 (Homo sapiens, UniProt Q16539); assay: SAPK2a(h) Kinase panel
[9] = target: TGF-beta receptor type-1 (Homo sapiens, UniProt P36897); assay: TGFBR1(h) Kinase panel
[10] = target: Casein kinase I isoform alpha (Homo sapiens, UniProt P48729); assay: CK1alpha(h) Kinase panel
[11] = target: T1, Casein kinase I isoform epsilon; assay: ADP-Glo
[12] = target: Mitogen-activated protein kinase 11 (Homo sapiens, UniProt Q15759); assay: SAPK2b(h) Kinase panel
[13] = target: Histamine H3 receptor (Homo sapiens) (UniProt Q9Y5N1); conditions: Compound concentration 10.0 uM
[14] = target: Sigma intracellular receptor 2 (Homo sapiens) (UniProt Q5BJF2); conditions: Compound concentration 10.0 uM
[15] = target: T2, D(3) dopamine receptor (Homo sapiens, UniProt P35462); conditions: Compound concentration 10.0 uM
[16] = target: Beta-3 adrenergic receptor (Homo sapiens) (UniProt P13945); conditions: Compound concentration 10.0 uM
[17] = target: Sodium-dependent noradrenaline transporter (Homo sapiens) (UniProt P23975); conditions: Compound concentration 10.0 uM
[18] = target: Delta-type opioid receptor (Homo sapiens) (UniProt P41143); conditions: Compound concentration 10.0 uM
[19] = target: Casein kinase I isoform delta (Homo sapiens, UniProt P48730); assay: BRET whole cell binding assay
[20] = target: Sigma non-opioid intracellular receptor 1 (Homo sapiens) (UniProt Q99720); conditions: Compound concentration 10.0 uM
[21] = target: 5-hydroxytryptamine receptor 3A (Homo sapiens) (UniProt P46098); conditions: Compound concentration 10.0 uM
[22] = target: Histamine H4 receptor (Homo sapiens) (UniProt Q9H3N8); conditions: Compound concentration 10.0 uM
[23] = target: 5-hydroxytryptamine receptor 1B (Homo sapiens) (UniProt P28222); conditions: Compound concentration 10.0 uM
[24] = target: 5-hydroxytryptamine receptor 7 (Homo sapiens) (UniProt P34969); conditions: Compound concentration 10.0 uM
[25] = target: Alpha-1B adrenergic receptor (Homo sapiens) (UniProt P35368); conditions: Compound concentration 10.0 uM
[26] = target: 5-hydroxytryptamine receptor 1E (Homo sapiens) (UniProt P28566); conditions: Compound concentration 10.0 uM
[27] = target: Alpha-2A adrenergic receptor (Homo sapiens) (UniProt P08913); conditions: Compound concentration 10.0 uM
[28] = target: D(2) dopamine receptor (Homo sapiens) (UniProt P14416); conditions: Compound concentration 10.0 uM
[29] = target: 5-hydroxytryptamine receptor 2A (Homo sapiens) (UniProt P28223); conditions: Compound concentration 10.0 uM
[30] = target: Histamine H2 receptor (Homo sapiens) (UniProt P25021); conditions: Compound concentration 10.0 uM
[31] = target: Muscarinic acetylcholine receptor M3 (Homo sapiens) (UniProt P20309); conditions: Compound concentration 10.0 uM
[32] = target: Muscarinic acetylcholine receptor M4 (Homo sapiens) (UniProt P08173); conditions: Compound concentration 10.0 uM
[33] = target: T3, Sodium-dependent dopamine transporter (Homo sapiens, UniProt Q01959); assay: GPCRScan assay: inhibition of DAT; parameters: radioligand conc. used [nm] 3.6 – 16.0, parental cells stable HEK
[34] = target: Kappa-type opioid receptor (Homo sapiens) (UniProt P41145); conditions: Compound concentration 10.0 uM
[35] = target: T2, D(3) dopamine receptor; assay: GPCRScan assay: inhibition of D3; parameters: radioligand conc. used [nm] 0.5 – 1.8, parental cells HEKT
[36] = target: D(4) dopamine receptor (Homo sapiens) (UniProt P21917); conditions: Compound concentration 10.0 uM
[37] = target: 5-hydroxytryptamine receptor 1A (Homo sapiens, UniProt P08908); assay: GPCRScan assay: inhibition of 5-HT1A; parameters: radioligand conc. used [nm] 0.5 – 1.0, parental cells stable CHO
[38] = target: 5-hydroxytryptamine receptor 2C (Homo sapiens) (UniProt P28335); conditions: Compound concentration 10.0 uM
[39] = target: 5-hydroxytryptamine receptor 2B (Homo sapiens) (UniProt P41595); conditions: Compound concentration 10.0 uM
[40] = target: Muscarinic acetylcholine receptor M1 (Homo sapiens) (UniProt P11229); conditions: Compound concentration 10.0 uM
[41] = target: Histamine H1 receptor (Homo sapiens) (UniProt P35367); conditions: Compound concentration 10.0 uM
[42] = target: Beta-1 adrenergic receptor (Homo sapiens) (UniProt P08588); conditions: Compound concentration 10.0 uM
[43] = target: Alpha-2B adrenergic receptor (Homo sapiens) (UniProt P18089); conditions: Compound concentration 10.0 uM
[44] = target: GABA-A receptor; anion channel (Rattus norvegicus) (UniProt O09028+P15431+P18506+P18508+P19969+P20236+P23574+P23576+P28471+P28473+P30191+P62813+P63079+P63138+Q91ZM7+Q9ES14); conditions: Compound concentration 10.0 uM
[45] = target: Alpha-2C adrenergic receptor (Homo sapiens) (UniProt P18825); conditions: Compound concentration 10.0 uM
[46] = target: T3, Sodium-dependent dopamine transporter; conditions: Compound concentration 10.0 uM
[47] = target: Sodium-dependent serotonin transporter (Homo sapiens) (UniProt P31645); conditions: Compound concentration 10.0 uM
[48] = target: D(1A) dopamine receptor (Homo sapiens) (UniProt P21728); conditions: Compound concentration 10.0 uM
[49] = target: Mu-type opioid receptor (Homo sapiens) (UniProt P35372); conditions: Compound concentration 10.0 uM
[50] = target: 5-hydroxytryptamine receptor 5A (Homo sapiens) (UniProt P47898); conditions: Compound concentration 10.0 uM
[51] = target: D(1B) dopamine receptor (Homo sapiens) (UniProt P21918); conditions: Compound concentration 10.0 uM
[52] = target: 5-hydroxytryptamine receptor 1D (Homo sapiens) (UniProt P28221); conditions: Compound concentration 10.0 uM
[53] = target: Alpha-1D adrenergic receptor (Homo sapiens) (UniProt P25100); conditions: Compound concentration 10.0 uM
[54] = target: Muscarinic acetylcholine receptor M5 (Homo sapiens) (UniProt P08912); conditions: Compound concentration 10.0 uM
[55] = target: Muscarinic acetylcholine receptor M2 (Homo sapiens) (UniProt P08172); conditions: Compound concentration 10.0 uM
Chain of Muscarinic acetylcholine receptor M2 (Homo sapiens) (P08172 whole entry): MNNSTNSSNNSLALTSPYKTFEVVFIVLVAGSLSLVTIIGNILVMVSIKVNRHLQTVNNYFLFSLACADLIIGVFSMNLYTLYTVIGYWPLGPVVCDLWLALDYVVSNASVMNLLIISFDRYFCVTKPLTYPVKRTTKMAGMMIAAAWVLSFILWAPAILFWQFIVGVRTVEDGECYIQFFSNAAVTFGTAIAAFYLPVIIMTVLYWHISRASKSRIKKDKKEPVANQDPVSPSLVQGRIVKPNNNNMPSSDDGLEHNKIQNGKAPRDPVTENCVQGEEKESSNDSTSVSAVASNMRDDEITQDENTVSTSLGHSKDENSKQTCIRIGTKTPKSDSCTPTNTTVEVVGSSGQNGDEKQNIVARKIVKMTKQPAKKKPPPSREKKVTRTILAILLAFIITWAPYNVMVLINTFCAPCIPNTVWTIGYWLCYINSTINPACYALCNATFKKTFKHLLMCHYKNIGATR

T3 sequence (Q01959 whole entry): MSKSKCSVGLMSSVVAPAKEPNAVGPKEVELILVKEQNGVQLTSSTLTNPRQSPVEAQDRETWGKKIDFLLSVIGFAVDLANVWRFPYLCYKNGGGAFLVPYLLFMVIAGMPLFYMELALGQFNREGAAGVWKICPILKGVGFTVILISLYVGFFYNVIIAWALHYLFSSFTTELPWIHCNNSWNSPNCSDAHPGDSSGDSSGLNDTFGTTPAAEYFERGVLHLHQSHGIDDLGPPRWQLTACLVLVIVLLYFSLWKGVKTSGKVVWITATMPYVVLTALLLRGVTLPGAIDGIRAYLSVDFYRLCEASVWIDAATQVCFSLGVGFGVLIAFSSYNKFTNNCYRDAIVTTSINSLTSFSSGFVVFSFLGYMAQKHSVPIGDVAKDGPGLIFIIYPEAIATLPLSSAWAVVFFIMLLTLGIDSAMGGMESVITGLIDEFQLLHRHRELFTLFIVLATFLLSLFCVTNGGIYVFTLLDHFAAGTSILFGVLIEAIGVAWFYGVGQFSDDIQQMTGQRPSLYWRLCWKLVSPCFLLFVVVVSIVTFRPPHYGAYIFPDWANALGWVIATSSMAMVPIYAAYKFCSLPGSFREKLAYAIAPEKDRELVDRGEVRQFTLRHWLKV
T2 sequence (P35462 whole entry): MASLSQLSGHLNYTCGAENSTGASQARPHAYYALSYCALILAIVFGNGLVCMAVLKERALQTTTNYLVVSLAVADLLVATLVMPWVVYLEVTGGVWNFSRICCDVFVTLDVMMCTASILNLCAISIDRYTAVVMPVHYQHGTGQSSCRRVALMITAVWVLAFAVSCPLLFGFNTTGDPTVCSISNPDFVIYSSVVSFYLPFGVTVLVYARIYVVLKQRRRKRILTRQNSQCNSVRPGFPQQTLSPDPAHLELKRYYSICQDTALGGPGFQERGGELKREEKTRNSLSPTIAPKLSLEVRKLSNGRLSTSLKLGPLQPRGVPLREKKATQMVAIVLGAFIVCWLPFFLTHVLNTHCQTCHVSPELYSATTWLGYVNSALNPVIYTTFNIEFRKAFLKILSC
T1 sequence (P49674 whole entry, canonical isoform): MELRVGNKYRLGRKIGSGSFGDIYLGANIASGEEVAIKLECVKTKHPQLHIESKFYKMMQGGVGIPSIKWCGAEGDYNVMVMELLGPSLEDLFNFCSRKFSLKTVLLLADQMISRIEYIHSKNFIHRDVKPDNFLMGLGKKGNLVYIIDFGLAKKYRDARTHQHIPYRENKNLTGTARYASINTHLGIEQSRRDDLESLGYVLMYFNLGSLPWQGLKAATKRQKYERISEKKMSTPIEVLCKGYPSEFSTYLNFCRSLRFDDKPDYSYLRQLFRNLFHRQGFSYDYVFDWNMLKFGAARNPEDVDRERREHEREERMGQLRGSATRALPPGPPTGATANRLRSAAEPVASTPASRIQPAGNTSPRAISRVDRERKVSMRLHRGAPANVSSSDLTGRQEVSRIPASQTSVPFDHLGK
Chain of Histamine H1 receptor (Homo sapiens) (P35367 whole entry): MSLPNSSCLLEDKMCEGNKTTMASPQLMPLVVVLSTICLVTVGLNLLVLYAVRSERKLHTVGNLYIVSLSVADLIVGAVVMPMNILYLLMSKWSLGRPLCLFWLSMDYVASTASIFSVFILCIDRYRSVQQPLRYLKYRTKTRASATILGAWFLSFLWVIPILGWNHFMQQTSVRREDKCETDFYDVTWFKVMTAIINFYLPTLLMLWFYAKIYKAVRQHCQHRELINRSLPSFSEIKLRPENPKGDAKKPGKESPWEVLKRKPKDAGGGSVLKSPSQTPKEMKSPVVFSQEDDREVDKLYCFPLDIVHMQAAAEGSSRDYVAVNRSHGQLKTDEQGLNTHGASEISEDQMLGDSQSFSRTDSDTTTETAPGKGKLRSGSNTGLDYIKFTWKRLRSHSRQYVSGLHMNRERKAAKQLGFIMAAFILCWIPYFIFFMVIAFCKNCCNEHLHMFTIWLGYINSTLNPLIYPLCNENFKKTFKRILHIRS
Chain of Histamine H2 receptor (Homo sapiens) (P25021 whole entry): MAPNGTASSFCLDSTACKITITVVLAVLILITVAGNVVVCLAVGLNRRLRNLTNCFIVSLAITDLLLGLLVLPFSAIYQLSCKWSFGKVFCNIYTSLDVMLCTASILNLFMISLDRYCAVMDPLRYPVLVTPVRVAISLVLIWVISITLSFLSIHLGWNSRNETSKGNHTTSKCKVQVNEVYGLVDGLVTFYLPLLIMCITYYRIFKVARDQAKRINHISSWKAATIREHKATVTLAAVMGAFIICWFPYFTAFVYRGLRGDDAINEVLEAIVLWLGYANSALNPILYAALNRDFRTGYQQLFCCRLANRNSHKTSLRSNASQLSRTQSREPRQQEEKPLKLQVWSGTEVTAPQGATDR
Chain of Muscarinic acetylcholine receptor M3 (Homo sapiens) (P20309 whole entry, looked up): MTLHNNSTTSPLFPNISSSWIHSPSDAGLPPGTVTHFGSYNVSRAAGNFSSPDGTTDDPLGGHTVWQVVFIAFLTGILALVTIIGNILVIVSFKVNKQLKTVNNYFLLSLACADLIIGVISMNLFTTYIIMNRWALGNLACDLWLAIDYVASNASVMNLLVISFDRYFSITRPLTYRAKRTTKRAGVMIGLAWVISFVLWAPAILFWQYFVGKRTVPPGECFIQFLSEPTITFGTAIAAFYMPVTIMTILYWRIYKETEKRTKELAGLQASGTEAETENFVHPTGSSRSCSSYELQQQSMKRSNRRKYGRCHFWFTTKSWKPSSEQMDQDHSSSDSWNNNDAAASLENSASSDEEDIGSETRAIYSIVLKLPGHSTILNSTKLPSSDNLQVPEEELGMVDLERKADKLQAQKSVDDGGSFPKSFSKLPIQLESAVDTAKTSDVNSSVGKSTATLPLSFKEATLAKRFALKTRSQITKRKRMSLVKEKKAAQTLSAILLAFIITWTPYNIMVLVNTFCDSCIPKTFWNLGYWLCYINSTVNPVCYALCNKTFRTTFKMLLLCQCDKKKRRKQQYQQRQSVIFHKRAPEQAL
Chain of Serine/threonine-protein kinase 38-like (Q9Y2H1 whole entry): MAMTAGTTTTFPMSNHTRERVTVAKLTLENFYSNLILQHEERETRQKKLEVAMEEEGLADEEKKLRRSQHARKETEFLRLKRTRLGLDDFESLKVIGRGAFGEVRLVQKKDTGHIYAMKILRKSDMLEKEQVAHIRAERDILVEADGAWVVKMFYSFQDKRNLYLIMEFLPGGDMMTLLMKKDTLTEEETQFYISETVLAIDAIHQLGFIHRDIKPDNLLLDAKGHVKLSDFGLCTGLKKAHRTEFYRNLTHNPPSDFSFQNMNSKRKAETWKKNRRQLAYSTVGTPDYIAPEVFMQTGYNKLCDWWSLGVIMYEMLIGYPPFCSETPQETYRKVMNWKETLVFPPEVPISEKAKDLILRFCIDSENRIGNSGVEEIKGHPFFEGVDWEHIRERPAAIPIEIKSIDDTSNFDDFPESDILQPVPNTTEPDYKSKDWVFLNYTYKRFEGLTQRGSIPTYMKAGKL
Chain of Beta-1 adrenergic receptor (Homo sapiens) (P08588 whole entry, looked up): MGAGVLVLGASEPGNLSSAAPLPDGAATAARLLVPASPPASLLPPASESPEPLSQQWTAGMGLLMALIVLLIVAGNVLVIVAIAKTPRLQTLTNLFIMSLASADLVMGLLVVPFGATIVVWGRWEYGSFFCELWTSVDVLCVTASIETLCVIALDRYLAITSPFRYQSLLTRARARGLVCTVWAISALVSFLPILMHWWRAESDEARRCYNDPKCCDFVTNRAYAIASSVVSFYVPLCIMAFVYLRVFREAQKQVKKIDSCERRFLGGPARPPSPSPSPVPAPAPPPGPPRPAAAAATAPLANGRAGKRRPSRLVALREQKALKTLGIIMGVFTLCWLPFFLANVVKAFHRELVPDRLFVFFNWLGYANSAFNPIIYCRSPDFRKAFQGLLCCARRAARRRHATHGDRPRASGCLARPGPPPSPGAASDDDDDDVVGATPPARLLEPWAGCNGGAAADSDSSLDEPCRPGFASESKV
Chain of Muscarinic acetylcholine receptor M4 (Homo sapiens) (P08173 whole entry): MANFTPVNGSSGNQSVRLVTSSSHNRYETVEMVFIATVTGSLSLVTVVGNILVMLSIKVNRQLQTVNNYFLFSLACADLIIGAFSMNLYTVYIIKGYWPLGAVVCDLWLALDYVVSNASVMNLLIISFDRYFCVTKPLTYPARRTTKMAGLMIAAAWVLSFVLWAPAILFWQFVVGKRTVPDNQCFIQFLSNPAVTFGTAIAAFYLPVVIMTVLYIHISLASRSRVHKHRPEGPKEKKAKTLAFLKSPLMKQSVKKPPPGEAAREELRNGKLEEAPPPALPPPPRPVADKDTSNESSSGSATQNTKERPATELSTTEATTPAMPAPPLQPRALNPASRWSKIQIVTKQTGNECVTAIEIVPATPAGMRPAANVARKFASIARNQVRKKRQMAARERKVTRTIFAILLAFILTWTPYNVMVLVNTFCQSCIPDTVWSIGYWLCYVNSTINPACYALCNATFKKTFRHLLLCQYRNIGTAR
Chain of Sigma intracellular receptor 2 (Homo sapiens) (Q5BJF2 whole entry): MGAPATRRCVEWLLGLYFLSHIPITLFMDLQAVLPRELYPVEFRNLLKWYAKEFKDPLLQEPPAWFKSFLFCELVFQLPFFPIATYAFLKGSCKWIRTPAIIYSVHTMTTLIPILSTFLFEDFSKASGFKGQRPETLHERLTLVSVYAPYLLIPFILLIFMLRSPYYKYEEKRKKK

[2H]C([2H])([2H])C1(C([2H])([2H])[2H])Cn2nc(-c3ccc(F)cn3)c(-c3ccnc4[nH]ncc34)c2CO1
IC50 [1]: > 10 µM
IC50 [2]: > 10 µM
IC50 [3]: 0.137 µM
IC50 [4]: 1.7 µM
IC50 [5]: > 10 µM
Ki [6]: 4.53 µM
pKi [6]: 5.34
IC50 [7]: > 10 µM
IC50 [8]: > 10 µM
IC50 [9]: > 10 µM
IC50 [10]: 0.419 µM
IC50 [11]: 0.137 µM (active)
IC50 [12]: > 10 µM

Cn1cc2c(-c3c(-c4ccc(F)cn4)nn4c3COC(C)(C)C4)ccnc2n1
inhibition [13]: -2.3%
inhibition [14]: -2.71%
inhibition [15]: 71%
inhibition [16]: 12.3%
inhibition [17]: 3.24%
inhibition [18]: -4.05%
IC50 [19]: > 10 µM (not active)
inhibition [20]: 13%
inhibition [21]: 1.67%
inhibition [22]: 31.6%
inhibition [23]: 3.69%
inhibition [24]: 2.11%
inhibition [25]: 35.2%
inhibition [26]: 11%
inhibition [27]: 19.6%
inhibition [28]: 16.9%
inhibition [29]: 0.96%
inhibition [30]: -7.88%
inhibition [31]: 0.71%
inhibition [32]: 0.72%
Ki ([33]; read-out: Ki): 7.22 µM
Ki ([33]; read-out: pKi (converted)): 7.24 µM
inhibition [34]: 5.15%
Ki [35]: 8.63 µM
inhibition [36]: 48.1%
Ki [37]: 7.66 µM
inhibition [38]: 2.17%
inhibition [39]: 9.41%
inhibition [40]: 14.2%
inhibition [41]: 12.5%
inhibition [42]: 14.9%
inhibition [43]: 9.43%
inhibition [44]: 18.2%
inhibition [45]: -5.28%
inhibition [46]: 72.5%
inhibition [47]: -2.06%
inhibition [48]: 5.63%
inhibition [49]: -0.34%
inhibition [50]: 5.31%
inhibition [51]: 3.57%
inhibition [52]: 11.3%
inhibition [53]: 12.7%
inhibition [54]: 12.5%
inhibition [55]: -5.08%
